Measured values as given in patent US20250081966A1, “HERBICIDE COMBINATIONS” (UPL CORPORATION LIMITED, priority 2021, published 2025).

Experiments:
Type in all cases: in vivo
[1] = system: Lolium multiflorum Lam. (Italian ryegrass, LOLMU); assay: Weed control of LOLMU in wheat crop, pre-emergence spray (Example 2); details: 450 g/L
Experimental: (§1) Experiments were conducted to assess the efficacy of herbicidal combination comprising napropamide/napropamide-M to control a weed, Lolium multiflorum Lam. (Italian ryegrass, LOLMU) in wheat crop. The weed is resistant to control by conventional herbicides. Percentage efficacy of the herbicidal combination was determined over time (measured as days after anthesis, [DAA]) following application of the herbicidal combination comprising napropamide/napropamide-M and propisochlor. The herbicide combination was applied by spraying to LOLMU at pre-emergence stage.

[2] = system: Lolium multiflorum Lam. (Italian ryegrass, LOLMU); assay: Weight of the weed in wheat crop (Example 2); details: for % Decrease in weight of weed: versus untreated control
Experimental: as §1
Further, the effect of the herbicidal combination was also assessed for the weight of the weed in wheat crop and the results has been disclosed in Table 3.

LOLMU (S-strain) = assay: Efficacy of pre-emergence spray against resistant weed LOLMU (Example 1); details: sprayed at pre-emergence stage
Experimental: Experiments were conducted to assess the efficacy of herbicidal combination comprising napropamide/napropamide-M to control a weed (LOLMU) which is resistant to control by conventional herbicides. Percentage efficacy of the herbicidal combination was determined over time (measured as days after anthesis, [DAA]) following application the of herbicidal combination comprising napropamide/napropamide-M and prosulfocarb. The herbicidal combination was applied by spraying to LOLMU (S-strain) at pre-emergence stage.

Question: For `CCN(CC)C(=O)C(C)Oc1cccc2ccccc12` (stereo not drawn) [Napropamid, N,N-diethyl-2-(α-naphthoxy) propionamide], which “Weed control (%) 15 DAA” value ([1]; dose 750 g/Ha) is on record?
Answer: 65%

Question: And the “Weed control (%) 25 DAA” value ([1]; dose 750 g/Ha)?
Answer: 83%

Question: What about the “Weed control (%) 45 DAA” value ([1]; dose 750 g/Ha) of the same molecule?
Answer: 79%

Question: And the “Weed control (%) 15 DAA” value ([1]; dose 1000 g/Ha)?
Answer: 72%

Question: What about the “Weed control (%) 25 DAA” value ([1]; dose 1000 g/Ha) of the same molecule?
Answer: 86%

Question: And the “Weed control (%) 45 DAA” value ([1]; dose 1000 g/Ha)?
Answer: 82%

Question: And the “Weight of weed (g/m^2)” value ([2]; 450 g/L, dose 750 g/Ha)?
Answer: 2.11 g/m^2

Question: And the “% Decrease in weight of weed” value ([2]; 450 g/L, dose 750 g/Ha)?
Answer: 27%

Question: And the “Weight of weed (g/m^2)” value ([2]; 450 g/L, dose 1000 g/Ha)?
Answer: 1.86 g/m^2

Question: What about the “% Decrease in weight of weed” value ([2]; 450 g/L, dose 1000 g/Ha) of the same molecule?
Answer: 36%

Question: For `CCN(CC)C(=O)[C@@H](C)Oc1cccc2ccccc12` [Napropamide-M 450 g/L, Napropamide-M], which “Control in weed (%)” value (LOLMU (S-strain); dose 315 g/Ha) is on record?
Answer: 69.80%

Question: `CCc1cccc(C)c1N(COC(C)C)C(=O)CCl` [Propisochlor, propisochlor] was tested. Which “Weight of weed (g/m^2)” value ([2]; 720 g/L, dose 800 g/Ha) did it give?
Answer: 760 g/m^2

Question: And the “% Decrease in weight of weed” value ([2]; 720 g/L, dose 800 g/Ha)?
Answer: 74%

Question: `CCCN(CCC)C(=O)SCc1ccccc1` [Prosulfocarb 800 g/L, prosulfocarb] was tested. Which “Control in weed (%)” value (LOLMU (S-strain); dose 2400 g/Ha) did it give?
Answer: 68.14%

Question: What about the “Control in weed (%)” value (LOLMU (S-strain); dose 5000 g/Ha) of the same molecule?
Answer: 78.02%
